According to publication PMC9814838, “The orphan nuclear receptor Nurr1 is responsive to non-steroidal anti-inflammatory drugs” (Communications Chemistry, 2020):
Like-named read-outs stand apart in the source and are kept apart here.

How the values were obtained:
Format in all cases: cell-based
Nur77 = target: T1, Nur77 (Homo sapiens, UniProt P22736); assay: Gal4-Nur77 hybrid reporter gene assay in HEK293T cells; settings: for Nur77 activity 10μM (mean fold activation) / Nur77 activity 30μM (mean fold activation): primary screen, n ≥ 2, ^# not significant vs VP16 control; for Nur77 min./max. activation: compared to 0.1% DMSO; for Nur77 min./max. activation / IC50: mean ± SD; for IC50: HEK293T, n≥3; for Nur77 activity in words or dash: dash = not reported as active versus VP16 control (p < 0.05)
T1 construct: Nur77 (uniprot entry: hNUR77–P22736, residues 358–598); expressed in transfected cells; host or cells: HEK293T

Nurr1 = target: T2, Nurr1 (Homo sapiens, UniProt P43354); assay: Gal4-Nurr1 hybrid reporter gene assay in HEK293T cells; settings: for Nurr1 activity 10μM (mean fold activation) / Nurr1 activity 30μM (mean fold activation): primary screen, n ≥ 2, ^# not significant vs VP16 control
T2 construct: Nurr1 (uniprot entry: hNURR1–P43354, residues 360–598); expressed in transfected cells; host or cells: HEK293T

NOR1 = target: T3, NOR1 (Homo sapiens, UniProt Q92570); assay: Gal4-NOR1 hybrid reporter gene assay in HEK293T cells; settings: for Nor1 activity 10μM (mean fold activation) / Nor1 activity 30μM (mean fold activation): primary screen, n ≥ 2, ^# not significant vs VP16 control; for NOR1 min./max. activation: compared to 0.1% DMSO; for NOR1 activity in words or dash: dash = not reported as active versus VP16 control (p < 0.05)
T3 construct: NOR1 (isoform alpha; uniprot entry: hNOR1–Q92570-1, residues 393–626); expressed in transfected cells; host or cells: HEK293T
T3 sequence (Q92570 393-626): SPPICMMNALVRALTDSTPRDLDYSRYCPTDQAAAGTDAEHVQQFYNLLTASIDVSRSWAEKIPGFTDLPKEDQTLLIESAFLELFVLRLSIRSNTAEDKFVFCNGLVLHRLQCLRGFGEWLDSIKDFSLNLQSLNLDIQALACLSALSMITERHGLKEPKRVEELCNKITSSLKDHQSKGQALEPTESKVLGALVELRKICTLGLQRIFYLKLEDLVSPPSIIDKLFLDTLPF

[1] = HEK293T, mean ± SD, n≥3, read-out: NOR1 IC50

T2 sequence (P43354 360-598): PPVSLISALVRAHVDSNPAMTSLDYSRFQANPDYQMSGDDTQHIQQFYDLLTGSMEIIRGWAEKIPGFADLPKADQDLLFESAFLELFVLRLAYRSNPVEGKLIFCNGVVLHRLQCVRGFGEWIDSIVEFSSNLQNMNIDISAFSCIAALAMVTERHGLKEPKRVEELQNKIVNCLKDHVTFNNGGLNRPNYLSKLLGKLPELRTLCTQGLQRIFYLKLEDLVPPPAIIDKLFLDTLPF
T1 sequence (P22736 358-598): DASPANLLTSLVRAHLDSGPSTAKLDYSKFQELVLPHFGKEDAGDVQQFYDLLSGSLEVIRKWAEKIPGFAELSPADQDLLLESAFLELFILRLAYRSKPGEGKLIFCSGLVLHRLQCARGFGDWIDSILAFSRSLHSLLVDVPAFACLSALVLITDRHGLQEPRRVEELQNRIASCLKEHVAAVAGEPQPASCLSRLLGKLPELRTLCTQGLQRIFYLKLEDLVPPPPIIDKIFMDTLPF

SMILES: Cc1ccc(C(=O)c2ccc(CC(=O)O)n2C)cc1 [tolmetin]
- Nur77 activity 10μM (mean fold activation) (Nur77): 1.10 fold
- Nur77 activity 30μM (mean fold activation) (Nur77): 0.97 fold
- Nurr1 activity 10μM (mean fold activation) (Nurr1): 1.08 fold
- Nurr1 activity 30μM (mean fold activation) (Nurr1): 1.13 fold
- Nor1 activity 10μM (mean fold activation) (NOR1): 1.08 fold
- Nor1 activity 30μM (mean fold activation) (NOR1): 1.00 fold

SMILES: Nc1c(CC(=O)O)cccc1C(=O)c1ccc(Br)cc1 [bromfenac]
- Nur77 activity 10μM (mean fold activation) (Nur77): 1.08 fold
- Nur77 activity 30μM (mean fold activation) (Nur77): 1.03 fold
- Nurr1 activity 10μM (mean fold activation) (Nurr1): 1.09 fold
- Nurr1 activity 30μM (mean fold activation) (Nurr1): 1.12 fold
- Nor1 activity 10μM (mean fold activation) (NOR1): 1.26 fold
- Nor1 activity 30μM (mean fold activation) (NOR1): 1.09 fold

SMILES: CC(=O)Oc1ccccc1C(=O)O [acetylsalicylic acid]
- Nur77 activity 10μM (mean fold activation) (Nur77): 0.98 fold
- Nur77 activity 30μM (mean fold activation) (Nur77): 0.97 fold
- Nurr1 activity 10μM (mean fold activation) (Nurr1): 1.02 fold
- Nurr1 activity 30μM (mean fold activation) (Nurr1): 0.92 fold
- Nor1 activity 10μM (mean fold activation) (NOR1): 1.03 fold
- Nor1 activity 30μM (mean fold activation) (NOR1): 0.93 fold

SMILES: CN1C(C(=O)Nc2ccccn2)=C(O)c2ccccc2S1(=O)=O [piroxicam]
- Nur77 activity 10μM (mean fold activation) (Nur77): 1.03 fold
- Nur77 activity 30μM (mean fold activation) (Nur77): 0.92 fold
- Nurr1 activity 10μM (mean fold activation) (Nurr1): 0.98 fold
- Nurr1 activity 30μM (mean fold activation) (Nurr1): 0.98 fold
- Nor1 activity 10μM (mean fold activation) (NOR1): 1.05 fold
- Nor1 activity 30μM (mean fold activation) (NOR1): 1.01 fold

SMILES: Cc1ccc(-c2cc(C(F)(F)F)nn2-c2ccc(S(N)(=O)=O)cc2)cc1 [celecoxib]
- Nur77 activity 10μM (mean fold activation) (Nur77): 0.75 fold
- Nur77 activity 30μM (mean fold activation) (Nur77): toxic
- Nurr1 activity 10μM (mean fold activation) (Nurr1): 0.93 fold
- Nurr1 activity 30μM (mean fold activation) (Nurr1): 0.97 fold
- Nor1 activity 10μM (mean fold activation) (NOR1): 0.92 fold
- Nor1 activity 30μM (mean fold activation) (NOR1): toxic

SMILES: O=C(O)Cc1ccccc1Nc1c(Cl)cccc1Cl [diclofenac]
- Nur77 activity 10μM (mean fold activation) (Nur77): 0.94 fold
- Nur77 activity 30μM (mean fold activation) (Nur77): toxic
- Nurr1 activity 10μM (mean fold activation) (Nurr1): 1.19 fold
- Nurr1 activity 30μM (mean fold activation) (Nurr1): toxic
- Nor1 activity 10μM (mean fold activation) (NOR1): 1.11 fold
- Nor1 activity 30μM (mean fold activation) (NOR1): toxic

SMILES: O=C(OCCOCCO)c1ccccc1Nc1cccc(C(F)(F)F)c1 [etofenamate]
- Nur77 activity 10μM (mean fold activation) (Nur77): 0.84 fold
- Nur77 activity 30μM (mean fold activation) (Nur77): toxic
- Nurr1 activity 10μM (mean fold activation) (Nurr1): 0.97 fold
- Nurr1 activity 30μM (mean fold activation) (Nurr1): toxic
- Nor1 activity 10μM (mean fold activation) (NOR1): 1.07 fold
- Nor1 activity 30μM (mean fold activation) (NOR1): toxic

SMILES: NC(=O)Cc1cccc(C(=O)c2ccccc2)c1N [nepafenac]
- Nur77 activity 10μM (mean fold activation) (Nur77): 0.98 fold
- Nur77 activity 30μM (mean fold activation) (Nur77): 0.97 fold
- Nurr1 activity 10μM (mean fold activation) (Nurr1): 1.02 fold
- Nurr1 activity 30μM (mean fold activation) (Nurr1): 0.92 fold
- Nor1 activity 10μM (mean fold activation) (NOR1): 1.09 fold
- Nor1 activity 30μM (mean fold activation) (NOR1): 1.23 fold

SMILES: COc1ccc2c(c1)c(CC(=O)O)c(C)n2C(=O)c1ccc(Cl)cc1 [indometacin]
- Nur77 activity 10μM (mean fold activation) (Nur77): 0.83 fold
- Nur77 activity 30μM (mean fold activation) (Nur77): toxic
- Nurr1 activity 10μM (mean fold activation) (Nurr1): 0.96 fold
- Nurr1 activity 30μM (mean fold activation) (Nurr1): 0.91 fold
- Nor1 activity 10μM (mean fold activation) (NOR1): 0.87 fold
- Nor1 activity 30μM (mean fold activation) (NOR1): toxic

SMILES: Cc1cnc(NC(=O)C2=C(O)c3ccccc3S(=O)(=O)N2C)s1 [meloxicam]
- Nur77 min./max. activation (Nur77): 0.23 ± 0.02
- IC50 (NOR1): 84 ± 17 µM
- NOR1 min./max. activation (NOR1; mean ± SD): 0.1 ± 0.1

SMILES: Cc1c(Nc2ncccc2C(=O)O)cccc1C(F)(F)F [flunixin]
- Nur77 activity 10μM (mean fold activation) (Nur77): toxic
- Nur77 activity 30μM (mean fold activation) (Nur77): toxic
- Nurr1 activity 10μM (mean fold activation) (Nurr1): toxic
- Nurr1 activity 30μM (mean fold activation) (Nurr1): toxic
- Nor1 activity 10μM (mean fold activation) (NOR1): toxic
- Nor1 activity 30μM (mean fold activation) (NOR1): toxic

SMILES: Cc1c(Cl)cccc1Nc1ccccc1C(=O)O [tolfenamic acid]
- Nur77 activity 10μM (mean fold activation) (Nur77): toxic
- Nur77 activity 30μM (mean fold activation) (Nur77): toxic
- Nurr1 activity 10μM (mean fold activation) (Nurr1): 1.18 fold
- Nurr1 activity 30μM (mean fold activation) (Nurr1): toxic
- Nor1 activity 10μM (mean fold activation) (NOR1): toxic
- Nor1 activity 30μM (mean fold activation) (NOR1): toxic

SMILES: COc1ccc(-c2noc(CC(=O)O)c2-c2ccc(OC)cc2)cc1 [mofezolac]
- Nur77 activity 10μM (mean fold activation) (Nur77): 0.98 fold
- Nur77 activity 30μM (mean fold activation) (Nur77): 0.69 fold
- IC50 (Nur77): 30 ± 1 µM
- Nur77 min./max. activation (Nur77): 0.38 ± 0.02
- Nur77 activity in words or dash (Nur77): inverse agonism
- Nurr1 activity 10μM (mean fold activation) (Nurr1): 0.94 fold
- Nurr1 activity 30μM (mean fold activation) (Nurr1): 0.94 fold
- Nor1 activity 10μM (mean fold activation) (NOR1): 1.00 fold
- Nor1 activity 30μM (mean fold activation) (NOR1): 0.78 fold
- IC50 (NOR1; [1]): 33 ± 5 µM
- NOR1 min./max. activation (NOR1; mean ± SD): 0.32 ± 0.10
- NOR1 activity in words or dash (NOR1): inverse agonism

SMILES: CN1C(C(=O)Nc2ccccn2)=C(O)c2sc(Cl)cc2S1(=O)=O [lornoxicam]
- Nur77 activity 10μM (mean fold activation) (Nur77): 0.86 fold
- Nur77 activity 30μM (mean fold activation) (Nur77): 0.64 fold
- IC50 (Nur77): 9.4 ± 6.3 µM
- Nur77 min./max. activation (Nur77): 0.63 ± 0.09
- Nur77 activity in words or dash (Nur77): inverse agonism
- Nurr1 activity 10μM (mean fold activation) (Nurr1): 0.93 fold
- Nurr1 activity 30μM (mean fold activation) (Nurr1): 0.86 fold
- Nurr1 activity in words or dash (Nurr1; dash = not reported as active versus VP16 control (p < 0.05)): without affecting Nurr1 activity
- Nor1 activity 10μM (mean fold activation) (NOR1): 0.92 fold
- Nor1 activity 30μM (mean fold activation) (NOR1): 0.73 fold
- IC50 (NOR1; [1]): 24 ± 3 µM
- NOR1 min./max. activation (NOR1; mean ± SD): 0.62 ± 0.02
- NOR1 activity in words or dash (NOR1): inverse agonism

SMILES: CC(C(=O)O)c1ccc(-c2ccccc2)c(F)c1 (stereo not shown) [flurbiprofen]
- Nur77 activity 10μM (mean fold activation) (Nur77): 0.93 fold
- Nur77 activity 30μM (mean fold activation) (Nur77): 0.96 fold
- Nurr1 activity 10μM (mean fold activation) (Nurr1): 1.25 fold
- Nurr1 activity 30μM (mean fold activation) (Nurr1): 1.05 fold
- Nor1 activity 10μM (mean fold activation) (NOR1): 0.98 fold
- Nor1 activity 30μM (mean fold activation) (NOR1): 0.91 fold

SMILES: O=C(O)c1ccccc1Nc1cccc(C(F)(F)F)c1 [flufenamic acid]
- Nur77 activity 10μM (mean fold activation) (Nur77): 0.99 fold
- Nur77 activity 30μM (mean fold activation) (Nur77): toxic
- Nurr1 activity 10μM (mean fold activation) (Nurr1): 1.14 fold
- Nurr1 activity 30μM (mean fold activation) (Nurr1): toxic
- Nor1 activity 10μM (mean fold activation) (NOR1): 1.36 fold
- Nor1 activity 30μM (mean fold activation) (NOR1): toxic

SMILES: CS(=O)(=O)c1ccc(C2=C(c3ccccc3)C(=O)OC2)cc1 [rofecoxib]
- Nur77 activity 10μM (mean fold activation) (Nur77): 0.93 fold
- Nur77 activity 30μM (mean fold activation) (Nur77): 0.91 fold
- Nurr1 activity 10μM (mean fold activation) (Nurr1): 1.02 fold
- Nurr1 activity 30μM (mean fold activation) (Nurr1): 0.92 fold
- Nor1 activity 10μM (mean fold activation) (NOR1): 0.95 fold
- Nor1 activity 30μM (mean fold activation) (NOR1): 1.01 fold

SMILES: CC(C(=O)O)c1cccc(C(=O)c2ccccc2)c1 (stereo not shown) [ketoprofen]
- Nur77 activity 10μM (mean fold activation) (Nur77): 1.04 fold
- Nur77 activity 30μM (mean fold activation) (Nur77): 0.88 fold
- Nurr1 activity 10μM (mean fold activation) (Nurr1): 1.00 fold
- Nurr1 activity 30μM (mean fold activation) (Nurr1): 0.94 fold
- Nor1 activity 10μM (mean fold activation) (NOR1): 1.10 fold
- Nor1 activity 30μM (mean fold activation) (NOR1): 0.96 fold

SMILES: Cc1cccc(Nc2ccccc2C(=O)O)c1C [mefenamic acid]
- Nur77 activity 10μM (mean fold activation) (Nur77): 0.80 fold
- Nur77 activity 30μM (mean fold activation) (Nur77): toxic
- Nurr1 activity 10μM (mean fold activation) (Nurr1): 0.90 fold
- Nurr1 activity 30μM (mean fold activation) (Nurr1): 0.86 fold
- Nor1 activity 10μM (mean fold activation) (NOR1): 0.95 fold
- Nor1 activity 30μM (mean fold activation) (NOR1): toxic
